In ChEMBL document CHEMBL4266045, “Understanding Molecular Drivers of Melanin Binding To Support Rational Design of Small Molecule Ophthalmic Drugs” (J Med Chem, 2018) one finds Fu and logD data, which are given here for 6 compounds.

Broadly, the logD is lipophilicity at a set pH, counting ionised and neutral species. Read a high logD as higher lipophilicity.

Each structure is given as a SMILES string.

The subject of one data set is Sepia officinalis. As to the kind of experiment: Binding affinity to Sepia officinalis melanin assessed as fraction unbound at 2 uM after 2 hrs by high-throughput screening assay.
The nature of data set [1]: Lipophilicity, log D of compound. The following applies: octanol/water.

In the case of `c1ccc2c(c1)oc1c(Nc3ccncc3)ncnc12`, the Fu in the data set on Sepia officinalis was 0.1%. The compound further returned a logD in data set [1] of 2.98.

`COc1cc(N)c(Cl)cc1C(=O)CCC1CCNCC1`: the Fu in the data set on Sepia officinalis stood at 34%. In data set [1], this compound showed a logD of 0.01.

As for `CCCCN1CCC(CCC(=O)c2cc(Cl)c(N)cc2OC)CC1`, the Fu in the data set with Sepia officinalis was determined as 0.8%. This compound also returned a pH-dependent lipophilicity (logD) in data set [1] of 1.91.

With `Nc1nc2ccc(OC(F)(F)F)cc2s1`, in the data set with Sepia officinalis, the Fu turned out to be 48%.

On to `CN(C)c1nc2ccc(Cl)cc2s1`, for which the Fu in the data set with Sepia officinalis turned out to be 0.2%. Moreover, the logD in data set [1] came out at 2.04.

As to `Cc1ccccc1Nc1ncnc2c1oc1ccccc12`, in the data set on Sepia officinalis, the Fu was 34%. Further, the logD in data set [1] was 3.77.
